Columns and labels:
[1] = test system: kinase; assay: standard kinase profiling assays; type: biochemical
[2] = test system: podocytes; assay: ROS assay in wild-type podocytes treated with AngII; type: cell-based, mouse; details: WT podocytes, AngII 10 μM, 30 μM compound, 3 hours
Protocol: Podocyte culture and viral transduction: Immortalized mouse podocytes were cultured as previously described (10, 11). Podocyte viral transduction was performed using lentivirus as previously described (10, 11). Briefly, lentivirus production was carried out in HEK293T cells at 60% confluence, and viral particles were collected two days after transfection and purified by centrifugation at 1,000 rcf for 5 min. Purified lentivirus was frozen at −80° C. until further use. Podocytes were transduced with lentivirus after 7 days of differentiation, and assays were performed 5 days after viral transduction.
ROS and cell viability assays: For ROS experiment in FIG. 4A, mature podocytes were cultured as previously described. Cells were incubated with CellRox Deep Red reagent (ThermoFisher) for 30 min at 37° C. Then cells were treated with DMSO, 10 μM angiotensin II, 10 μM angiotensin II with 30 μM AC1903, or 10 μM angiotensin II with 30 μM N-acetyl-L-cysteine (NAC) for 3 hours at 37° C. Cells were washed with PBS twice and fluorescence images were observed using Olympus IX71 microscopy. Fluorescence intensities were then analyzed using ImageJ software.

[3] = biological target: T1, TRPC4 (Homo sapiens, UniProt Q9UBN4); assay: HEK293 whole-cell patch clamp recording, TRPC4 inhibition assay; type: cell-based; details: 30 μM, HEK cells expressing TRPC4, CCh 100 μM
T1 construct: expressed in transfected cells; host or cells: HEK293
T1 sequence (Q9UBN4 1-977): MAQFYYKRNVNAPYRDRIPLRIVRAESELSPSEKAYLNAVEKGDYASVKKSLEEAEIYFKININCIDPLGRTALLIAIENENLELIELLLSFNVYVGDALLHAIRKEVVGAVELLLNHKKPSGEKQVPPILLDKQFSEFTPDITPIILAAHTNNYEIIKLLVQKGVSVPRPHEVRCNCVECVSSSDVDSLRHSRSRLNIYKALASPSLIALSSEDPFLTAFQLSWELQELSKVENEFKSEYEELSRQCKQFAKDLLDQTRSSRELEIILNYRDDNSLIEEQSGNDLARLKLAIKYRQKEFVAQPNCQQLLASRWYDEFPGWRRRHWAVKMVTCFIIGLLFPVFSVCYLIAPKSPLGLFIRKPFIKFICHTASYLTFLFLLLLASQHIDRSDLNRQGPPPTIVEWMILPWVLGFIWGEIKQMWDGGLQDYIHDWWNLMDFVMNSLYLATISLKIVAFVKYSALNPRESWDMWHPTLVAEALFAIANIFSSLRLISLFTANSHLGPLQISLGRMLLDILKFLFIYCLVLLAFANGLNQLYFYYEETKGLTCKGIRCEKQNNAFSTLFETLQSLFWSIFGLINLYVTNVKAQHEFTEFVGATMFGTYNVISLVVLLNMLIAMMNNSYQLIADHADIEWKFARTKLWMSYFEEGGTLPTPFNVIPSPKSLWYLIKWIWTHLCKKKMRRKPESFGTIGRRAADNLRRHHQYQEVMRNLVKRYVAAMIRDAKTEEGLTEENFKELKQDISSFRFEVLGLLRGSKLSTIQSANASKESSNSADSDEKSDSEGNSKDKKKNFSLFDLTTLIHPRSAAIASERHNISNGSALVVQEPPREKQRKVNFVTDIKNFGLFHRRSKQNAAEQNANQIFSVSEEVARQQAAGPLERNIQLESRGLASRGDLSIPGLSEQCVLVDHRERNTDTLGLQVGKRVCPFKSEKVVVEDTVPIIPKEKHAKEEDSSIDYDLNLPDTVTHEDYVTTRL
Protocol: TRPC4, TRPC5, and TRPC6 inhibition assay: HEK293 whole-cell recordings Whole-cell patch clamp recording was performed 16 h after transfection. The bath solution contained (in mM): 140 NaCl, 5 KCl, 10 HEPES, 2 MgCl2, 2 CaCl2, 10 glucose with pH7.4 adjusted with NaOH. The intracellular solution contained (in mM): 140 KCl, 5 EGTA, 10 HEPES, 2 MgCl2 with pH7.4 adjusted with KOH. The patch pipettes were made using a two-step-protocol (P-97, Sutter Instrument). The pipette resistance was maintained between 4 to 8 MΩ. Once the whole-cell configuration was achieved, cells were clamped at a holding potential of −60 mV, and given a 50 ms ramp stimulation from −100 mV to +100 mV in every 5 s. All currents were filtered at 2 KHz (Axopatch 200B amplifier, Axon Instruments, Union City, Calif.) and digitized at 10 KHz for whole-cell recordings using Axon pCLAMP 10.4. Data were then analyzed using Clampfit 10.4 (Molecular Devices).
HEK293 cell culture and transfection: Transfection of HEK293 cells was carried out using Plus reagent (Invitrogen) and Lipofectamine (Invitrogen) according to standard protocols. For heterologous expression of TRP channels in HEK293 cells, 1 μg of TRPC5-GFP, TRPC6-GFP or TRPC4-GFP plasmids were used to transfect HEK293 cells in a 3.5 cm petri dish where cells were allowed to grow to 80% confluence. Electrophysiology was carried out after 16 h incubation.

c1ccc(Cn2c(NCc3ccco3)nc3ccccc32)cc1 [AC1903]
off-target effects in kinase profiling [1]: not found to have any off-target effects | AngII-induced ROS [2]: blocked | block of carbachol (CCh)-induced TRPC4 current [3]: failed to block
